Measured values reported in patent US9199984B2, “Inhibition of enzymes” (CHIESI FARMACEUTICI S.p.A., priority 2012, dated 2015).

Biological target: T1, human neutrophil elastase (HNE) (Homo sapiens, UniProt P08246)
T1 construct: purchased Sigma E8140
T1 sequence (P08246 30-247 limits assumed): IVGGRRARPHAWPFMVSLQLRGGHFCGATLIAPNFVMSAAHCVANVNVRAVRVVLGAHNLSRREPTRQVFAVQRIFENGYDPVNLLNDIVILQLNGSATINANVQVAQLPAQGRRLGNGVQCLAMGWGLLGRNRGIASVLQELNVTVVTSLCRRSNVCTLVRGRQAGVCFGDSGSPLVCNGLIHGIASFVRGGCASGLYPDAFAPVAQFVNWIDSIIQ
Assay: HNE enzyme activity assay
Format: biochemical
Details: human leukocyte elastase, substrate MeOSuc-Ala-Ala-Pro-Val-AMC 100 μM, 25° C. for 30 minutes, fluorescence; read-out: HNE inhibition
Procedure: Compounds of the present invention were tested for potency in a human neutrophil elastase (HNE) enzyme activity assay.
Assays were performed in 96-well plates in a total assay volume of 100 μl. The final concentration of elastase enzyme (human leukocyte elastase, Sigma E8140) was 0.0036 units/well […]. The peptide substrate (MeOSuc-Ala-Ala-Pro-Val-AMC, Calbiochem #324740) was used at a final concentration of 100 μM. The final concentration of DMSO was 1% in the assay buffer (0.05M Tris.HCl, 0.1M NaCl, 0.1M CaCl2, 0.0005% brij-35, pH 7.5). The enzymatic reaction was started by addition of the enzyme and incubated at 25° C. for 30 minutes. After incubation, the reaction was stopped by addition of soybean trypsin inhibitor (Sigma T9003) at a final concentration of 50 μg/well. Fluorescence was measured using a Molecular Devices fluorescence plate reader using 380 nm excitation and 460 nm emission wavelengths.
A dose response to each compound was performed and the effect of compound in each experiment was expressed as a percentage inhibition of the control enzyme fluorescence. Dose response curves were plotted and compound potency (IC50) was determined. Compounds were tested in at least two separate experiments.

Row | IC50 [nM] | SMILES
1 | < 20 | Cc1c(-c2ccnn2-c2ccc(C#N)cc2)cn2nc(NC(=O)CCC[N+](C)(C)C)nc2c1-c1cccc(C(F)(F)F)c1 [Example 17, {3-[6-[2-(4-Cyano-phenyl)-2H-pyrazol-3-yl]-7-methyl-8-(3-trifluoromethyl-phenyl)-[1,2,4]triazolo[1,5-a]pyridin-2-ylcarbamoyl]-propyl}-trimethyl-ammonium bromide]
2 | < 20 | Cc1c(-c2ccnn2-c2ccc(C#N)cc2)cn2nc(NC(=O)CN3CCN(C)CC3)nc2c1-c1cccc(C(F)(F)F)c1 [Example 18, N-[6-[2-(4-Cyano-phenyl)-2H-pyrazol-3-yl]-7-methyl-8-(3-trifluoromethyl-phenyl)-[1,2,4]triazolo[1,5-a]pyridin-2-yl]-2-(4-methyl-piperazin-1-yl)-acetamide]
3 | < 20 | Cc1c(-c2ccnn2-c2ccc(C#N)cc2)cn2nc(NC(=O)CN3CC[N+](C)(C)CC3)nc2c1-c1cccc(C(F)(F)F)c1 [Example 19, 4-{[6-[2-(4-Cyano-phenyl)-2H-pyrazol-3-yl]-7-methyl-8-(3-trifluoromethyl-phenyl)-[1,2,4]triazolo[1,5-a]pyridin-2-ylcarbamoyl]-methyl}-1,1-dimethyl-piperazin-1-ium iodide]
4 | < 20 | Cc1c(-c2ccnn2-c2ccc(C#N)cc2)cn2nc(NC(=O)CN3CCOCC3)nc2c1-c1cccc(C(F)(F)F)c1 [Example 20, N-[6-[2-(4-Cyano-phenyl)-2H-pyrazol-3-yl]-7-methyl-8-(3-trifluoromethyl-phenyl)-[1,2,4]triazolo[1,5-a]pyridin-2-yl]-2-morpholin-4-yl-acetamide]
5 | < 20 | Cc1c(-c2ccnn2-c2ccc(C#N)cc2)cn2nc(NC(=O)CN3CCS(=O)(=O)CC3)nc2c1-c1cccc(C(F)(F)F)c1 [Example 21, N-[6-[1-(4-Cyano-phenyl)-1H-pyrazol-5-yl]-7-methyl-8-(3-trifluoromethyl-phenyl)-[1,2,4]triazolo[1,5-a]pyridin-2-yl]-2-(1,1-dioxothiomorpholin-4-yl)-acetamide]
6 | < 20 | Cc1c(-c2ccnn2-c2ccc(C#N)cc2)cn2nc(NC(=O)c3ccc(S(C)(=O)=O)cc3)nc2c1-c1cccc(C(F)(F)F)c1 [Example 22, N-[6-[2-(4-Cyano-phenyl)-2H-pyrazol-3-yl]-7-methyl-8-(3-trifluoromethyl-phenyl)-[1,2,4]triazolo[1,5-a]pyridin-2-yl]-4-methanesulfonyl-benzamide]
7 | < 20 | Cc1c(-c2ccnn2-c2ccc(C#N)cc2)cn2nc(NCc3ccc(S(C)(=O)=O)cc3)nc2c1-c1cccc(C(F)(F)F)c1 [Example 23, 4-{5-[2-(4-Methanesulfonyl-benzylamino)-7-methyl-8-(3-trifluoromethyl-phenyl)-[1,2,4]triazolo[1,5-a]pyridin-6-yl]-pyrazol-1-yl}-benzonitrile]
8 | < 20 | Cc1c(-c2ccnn2-c2ccc(C#N)cc2)cn2nc(NCC(=O)N(C)C)nc2c1-c1cccc(C(F)(F)F)c1 [Example 24, 2-[6-[2-(4-Cyano-phenyl)-2H-pyrazol-3-yl]-7-methyl-8-(3-trifluoromethyl-phenyl)-[1,2,4]triazolo[1,5-a]pyridin-2-ylamino]-N,N-dimethyl-acetamide]
9 | 20 to 100 | Cc1c(-c2ccnn2-c2ccc(C#N)cc2)cn2nc(NC(=O)C[N+]3(C)CCN(C)CC3)nc2c1-c1cccc(C(F)(F)F)c1 [Example 25, 1-{[6-[2-(4-Cyano-phenyl)-2H-pyrazol-3-yl]-7-methyl-8-(3-trifluoromethyl-phenyl)-[1,2,4]triazolo[1,5-a]pyridin-2-ylcarbamoyl]-methyl}-1,4-dimethyl-piperazin-1-ium chloride]

More lines, now with the values behind:

Row | SMILES | IC50 [nM]
10 | Cc1c(-c2ccnn2-c2ccc(C#N)cc2)cn2nc(N)nc2c1-c1cccc(C(F)(F)F)c1 [Example 1, 4-{5-[2-Amino-7-methyl-8-(3-trifluoromethyl-phenyl)-[1,2,4]triazolo[1,5-a]pyridin-6-yl]-pyrazol-1-yl}-benzonitrile] | 20 to 100
11 | Cc1c(-c2ccnn2-c2ccc(C#N)cc2)cn2cc(NC(=O)C(F)(F)F)nc2c1-c1cccc(C(F)(F)F)c1 [Example 2] | 100 to 500
12 | Cc1c(-c2ccnn2-c2ccc(C#N)cc2)cn2ncnc2c1-c1cccc(C(F)(F)F)c1 [Example 3, 4-{5-[7-Methyl-8-(3-trifluoromethyl-phenyl)-[1,2,4]triazolo[1,5-a]pyridin-6-yl]-pyrazol-1-yl}-benzonitrile] | < 20
13 | Cc1nc2c(-c3cccc(C(F)(F)F)c3)c(C)c(-c3ccnn3-c3ccc(C#N)cc3)cn2n1 [Example 4, 4-{5-[2,7-Dimethyl-8-(3-trifluoromethyl-phenyl)-[1,2,4]triazolo[1,5-a]pyridin-6-yl]-pyrazol-1-yl}-benzonitrile] | > 500
14 | Cc1cn2cc(-c3ccnn3-c3ccc(C#N)cc3)c(C)c(-c3cccc(C(F)(F)F)c3)c2n1 [Example 5, 4-{5-[2,7-Dimethyl-8-(3-trifluoromethyl-phenyl)-imidazo[1,2-a]pyridin-6-yl]-pyrazol-1-yl}-benzonitrile] | > 500
15 | Cc1c(-c2ccnn2-c2ccc(C#N)cc2)cn2ccnc2c1-c1cccc(C(F)(F)F)c1 [Example 6, 4-{5-[7-Methyl-8-(3-trifluoromethyl-phenyl)-imidazo[1,2-a]pyridin-6-yl]-pyrazol-1-yl}-benzonitrile] | 20 to 100
16 | Cc1c(-c2ccnn2-c2ccc(C#N)cc2)cn2nc(Nc3ccc(S(C)(=O)=O)cc3)nc2c1-c1cccc(C(F)(F)F)c1 [Example 7, 4-{5-[2-(4-Methanesulfonyl-phenylamino)-7-methyl-8-(3-trifluoromethyl-phenyl)-[1,2,4]triazolo[1,5-a]pyridin-6-yl]-pyrazol-1-yl}-benzonitrile] | < 20
17 | Cc1c(-c2ccnn2-c2ccc(C#N)cc2)cn2nc(Cc3ccc(S(C)(=O)=O)cc3)nc2c1-c1cccc(C(F)(F)F)c1 [Example 8, 4-{5-[2-(4-Methanesulfonyl-benzyl)-7-methyl-8-(3-trifluoromethyl-phenyl)-[1,2,4]triazolo[1,5-a]pyridin-6-yl]-pyrazol-1-yl}-benzonitrile] | 100 to 500
18 | Cc1c(-c2ccnn2-c2ccc(C#N)cc2)cn2c(=O)[nH]nc2c1-c1cccc(C(F)(F)F)c1 [Example 9, 4-{5-[7-Methyl-3-oxo-8-(3-trifluoromethyl-phenyl)-2,3-dihydro-[1,2,4]triazolo[4,3-a]pyridin-6-yl]-pyrazol-1-yl}-benzonitrile] | < 20
19 | Cc1c(-c2ccnn2-c2ccc(C#N)cc2)cn2c(=O)n(Cc3ccc(S(C)(=O)=O)cc3)nc2c1-c1cccc(C(F)(F)F)c1 [Example 10, 4-{5-[2-(4-Methanesulfonyl-benzyl)-7-methyl-3-oxo-8-(3-trifluoromethyl-phenyl)-2,3-dihydro-[1,2,4]triazolo[4,3-a]pyridin-6-yl]-pyrazol-1-yl}-benzonitrile] | 100 to 500
20 | Cc1c(-c2ccnn2-c2ccc(C#N)cc2)cn2c(=O)n(CC(=O)N(C)C)nc2c1-c1cccc(C(F)(F)F)c1 [Example 11, 2-[6-[2-(4-Cyano-phenyl)-2H-pyrazol-3-yl]-7-methyl-3-oxo-8-(3-trifluoromethyl-phenyl)-[1,2,4]triazolo[4,3-a]pyridin-2-yl]-N,N-dimethyl-acetamide] | > 500
21 | CNC(=O)Cn1nc2c(-c3cccc(C(F)(F)F)c3)c(C)c(-c3ccnn3-c3ccc(C#N)cc3)cn2c1=O [Example 12, 2-[6-[2-(4-Cyano-phenyl)-2H-pyrazol-3-yl]-7-methyl-3-oxo-8-(3-trifluoromethyl-phenyl)-[1,2,4]triazolo[4,3-a]pyridin-2-yl]-N-methyl-acetamide] | 100 to 500
22 | Cc1c(-c2ccnn2-c2ccc(C#N)cc2)cn2c(=O)n(CCCS(C)(=O)=O)nc2c1-c1cccc(C(F)(F)F)c1 [Example 13, 4-{5-[2-(3-Methanesulfonyl-propyl)-7-methyl-3-oxo-8-(3-trifluoromethyl-phenyl)-2,3-dihydro-[1,2,4]triazolo[4,3-a]pyridin-6-yl]-pyrazol-1-yl}-benzonitrile] | 100 to 500
23 | Cc1c(-c2ccnn2-c2ccc(C#N)cc2)cn2nc(NC(=O)CN(C)C)nc2c1-c1cccc(C(F)(F)F)c1 [Example 14, N-[6-[2-(4-Cyano-phenyl)-2H-pyrazol-3-yl]-7-methyl-8-(3-trifluoromethyl-phenyl)-[1,2,4]triazolo[1,5-a]pyridin-2-yl]-2-dimethylamino-acetamide] | < 20
24 | Cc1c(-c2ccnn2-c2ccc(C#N)cc2)cn2nc(NC(=O)C[N+](C)(C)C)nc2c1-c1cccc(C(F)(F)F)c1 [Example 15, {[6-[2-(4-Cyano-phenyl)-2H-pyrazol-3-yl]-7-methyl-8-(3-trifluoromethyl-phenyl)-[1,2,4]triazolo[1,5-a]pyridin-2-ylcarbamoyl]-methyl}-trimethyl-ammonium bromide] | 20 to 100
25 | Cc1c(-c2ccnn2-c2ccc(C#N)cc2)cn2nc(NC(=O)CCCN(C)C)nc2c1-c1cccc(C(F)(F)F)c1 [Example 16, N-[6-[2-(4-Cyano-phenyl)-2H-pyrazol-3-yl]-7-methyl-8-(3-trifluoromethyl-phenyl)-[1,2,4]triazolo[1,5-a]pyridin-2-yl]-4-dimethylamino-butyramide] | < 20
